Experiments:
[1] = target: PDGFR (Homo sapiens, UniProt P09619); test: PDGF-stimulated receptor phosphorylation in U1242 cells, ELISA; format: cell-based; design: U1242 (PDGF-β receptor); host or cells: U1242 MG glioma cells; conditions: for IC50: 100 ng/ml PDGF-BB, read-out: ELISA P-TYR U1242 IC50
Procedure, shortened: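 U1242 MG cells in 0.5% serum were pretreated with compound for 2 h at 37° C, then stimulated 5–10 min with PDGF-BB (100 ng/ml). Lysates captured on anti-PDGF receptor-coated plates; receptor phosphotyrosine detected by anti-phosphotyrosine ELISA with POD/ABTS read-out at 410 nm.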

[2] = system: PDGFR; test: Receptor tyrosine kinase inhibition, PDGFR; format: cell-based; conditions: for IC50: W = done in Western assay, read-out: PDGFR IC50 (W)
Procedure, shortened: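 Serum-starved cells treated with test compound for 2 hr at 37° C, then receptor phosphotyrosine measured by ELISA with anti-phosphotyrosine antibody and goat anti-rabbit IgG. Western blots used 7 min ligand stimulation at room temperature, vanadate-containing lysis and anti-phosphotyrosine immunodetection with ECL.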

Chain of PDGFR (Homo sapiens, UniProt P09619) (P09619 33-1106): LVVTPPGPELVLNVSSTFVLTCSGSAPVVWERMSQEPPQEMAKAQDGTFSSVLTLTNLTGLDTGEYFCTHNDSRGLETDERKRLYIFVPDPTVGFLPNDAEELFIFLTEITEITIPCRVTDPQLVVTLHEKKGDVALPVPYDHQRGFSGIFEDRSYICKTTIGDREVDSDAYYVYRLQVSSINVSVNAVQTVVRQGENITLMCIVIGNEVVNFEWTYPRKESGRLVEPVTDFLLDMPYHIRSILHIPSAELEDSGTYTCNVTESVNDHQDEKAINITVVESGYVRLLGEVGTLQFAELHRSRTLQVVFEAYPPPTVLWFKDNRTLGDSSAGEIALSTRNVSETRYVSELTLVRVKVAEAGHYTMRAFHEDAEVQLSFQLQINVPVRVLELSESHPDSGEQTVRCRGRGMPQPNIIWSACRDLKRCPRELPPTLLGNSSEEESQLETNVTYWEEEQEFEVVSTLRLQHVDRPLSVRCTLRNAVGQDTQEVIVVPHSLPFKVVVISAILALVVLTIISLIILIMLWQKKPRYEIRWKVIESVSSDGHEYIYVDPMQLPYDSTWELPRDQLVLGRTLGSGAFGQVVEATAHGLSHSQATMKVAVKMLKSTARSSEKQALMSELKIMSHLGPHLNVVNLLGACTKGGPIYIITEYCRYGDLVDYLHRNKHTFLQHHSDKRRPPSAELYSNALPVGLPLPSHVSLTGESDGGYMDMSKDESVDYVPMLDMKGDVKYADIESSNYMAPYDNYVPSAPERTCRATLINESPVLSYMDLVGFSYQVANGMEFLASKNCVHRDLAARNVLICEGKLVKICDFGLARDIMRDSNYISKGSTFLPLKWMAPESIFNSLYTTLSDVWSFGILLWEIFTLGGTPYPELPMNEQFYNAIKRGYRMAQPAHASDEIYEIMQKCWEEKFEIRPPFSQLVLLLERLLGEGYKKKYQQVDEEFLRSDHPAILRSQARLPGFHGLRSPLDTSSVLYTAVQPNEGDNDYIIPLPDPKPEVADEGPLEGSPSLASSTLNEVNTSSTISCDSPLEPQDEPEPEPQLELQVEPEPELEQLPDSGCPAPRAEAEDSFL

| Compound | IC50 [1] | IC50 [2] | PDGF-R phosphorylation [2] | inhibition of PDGF-stimulated receptor phosphorylation [1] |
| --- | --- | --- | --- | --- |
| N#CC(=Cc1c[nH]c2ccccc12)C(N)=S [Compound D11] | 8 µM | 8 µM |  |  |
| c1ccc(-c2cnc3cc4ccccc4cc3n2)cc1 [Compound G22] | 1 µM |  |  |  |
| CN(C)CCCn1cc(C=C(C#N)c2[nH]nc(N)c2C#N)c2ccccc21 [Compound D15] | 20 µM | 19 µM |  |  |
| N#CC(=Cc1c[nH]c2ccccc12)c1[nH]nc(N)c1C#N [Compound D14] | 20 µM |  | inhibit PDGF-R phosphorylation |  |
| Cc1oncc1C(=O)Nc1ccc(C(F)(F)F)cc1 [Compound A10, 5-methylisoxazole-4 carboxylic acid-(4-trifluromethyl)-anilide] | 65 µM |  |  |  |
| COc1cc2ncc(-c3ccccc3)nc2cc1OC [Compound G14] | 0.8 µM | 0.8 µM | inhibit PDGF-R phosphorylation | had the lowest IC50 |
| Cc1cc2ncc(-c3ccccc3)nc2cc1C [Compound G13] |  |  | inhibit PDGF-R phosphorylation | had the lowest IC50 |

More lines, main results first:

| IC50 [1] | IC50 [2] | Compound | PDGF-R phosphorylation [2] | inhibition of PDGF-stimulated receptor phosphorylation [1] |
| --- | --- | --- | --- | --- |
| 45 µM | 5 µM | O=c1c2ccccc2nc(C=Cc2ccc(O)c(O)c2)n1CCO [Compound F10] |  |  |
| 10 µM | 10 µM | Cc1cc2nc(-c3ccccc3)c(=O)[nH]c2cc1C [Compound G18] |  |  |
